Type in all cases: in vivo
Assay [1] relates to Yellow Fever Mosquito YFM (Aedes aegypti). The assay is described as follows: Bioassay on Yellow Fever Mosquito (YFM) larvae, 96-well plate. The settings on record: mortality of about 1 day-old larvae, scored after 3 days. How it is done:
Certain molecules disclosed in this document were tested against YFM using procedures described in the following paragraph. In the reporting of the results, the “YFM Rating Table” was used (See Table Section).
Master plates containing 400 μg of a molecule dissolved in 100 μL of dimethyl sulfoxide (DMSO) (equivalent to a 4000 ppm solution) are used. A master plate of assembled molecules contains 15 μL per well. To this plate, 135 μL of a 90:10 water:acetone mixture is added to each well. A robot (Biomek® NXP Laboratory Automation Workstation) is programmed to dispense 15 μL aspirations from the master plate into an empty 96-well shallow plate (“daughter” plate). There are 6 reps (“daughter” plates) created per master. The created daughter plates are then immediately infested with YFM larvae.
The day before plates are to be treated, mosquito eggs are placed in Millipore water containing liver powder to begin hatching (4 g. into 400 ml). After the daughter plates are created using the robot, they are infested with 220 μL of the liver powder/larval mosquito mixture (about 1 day-old larvae). After plates are infested with mosquito larvae, a non-evaporative lid is used to cover the plate to reduce drying. Plates are held at room temperature for 3 days prior to grading. After 3 days, each well is observed and scored based on mortality.
(§1) The results are indicated in the table entitled “Table ABC: Biological Results” (See Table Section).

The next assay has as its system BAW (Spodoptera exigua). Nature of the assay: Bioassay on Beet Armyworm (BAW), 128-well diet tray. The settings on record: Spodoptera exigua, 168 h, read-out: Rating BAW. The procedure, abridged:
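Second-instar Spodoptera exigua larvae (one to five per well) placed on artificial diet surface-treated with 50 μg/cm^2 compound in 90:10 acetone-water, dried, eight wells per compound. Held 5–7 days at 25 °C, 14:10 light-dark; percent mortality averaged across wells.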

Assay [2] relates to Green Peach Aphid (GPA) (Myzus persica). Nature of the assay: Bioassay on Green Peach Aphid (GPA), cabbage seedling foliar spray. The conditions noted are these: 72 h, read-out: Rating GPA. On the procedure: Certain molecules disclosed in this document were tested against GPA using procedures described in the following example. In the reporting of the results, the “GPA Rating Table” was used (See Table Section).
Cabbage seedlings grown in 3-inch pots, with 2-3 small (3-5 cm) true leaves, were used as test substrate. The seedlings were infested with 20-50 GPA (wingless adult and nymph stages) one day prior to chemical application. Four pots with individual seedlings were used for each treatment. Test compounds (2 mg) were dissolved in 2 mL of acetone/MeOH (1:1) solvent, forming stock solutions of 1000 ppm test compound. The stock solutions were diluted 5× with 0.025% Tween 20 in H2O to obtain the solution at 200 ppm test compound. A hand-held aspirator-type sprayer was used for spraying a solution to both sides of […] leaves until runoff. Reference plants (solvent check) were sprayed with the diluent only containing 20% by volume of acetone/MeOH (1:1) solvent. Treated plants were held in a holding room for three days at approximately 25° C. and ambient relative humidity (RH) prior to grading. Evaluation was conducted by counting the number of live aphids per plant under a microscope. Percent Control was measured by using Abbott's correction formula (W. S. Abbott, “A Method of Computing the Effectiveness of an Insecticide” J. Econ. Entomol. 18 (1925), pp. 265-267) as follows. Corrected % Control=100*(X−Y)/X • where • X=No. of live aphids on solvent check plants and • Y=No. of live aphids on treated plants
as §1

In another assay the test system is CEW (Helicoverpa zea). The assay is described as follows: Bioassay on Corn Earworm (CEW), 128-well diet tray. The settings on record: Helicoverpa zea, 168 h; for pest or weed control at 50 µg/cm2: read-out: Rating CEW; for pest or weed control at 0.5 µg/cm2: 0.5 μg/cm^2 on diet, read-out: Rating CEW (*Tested at 0.5 μg/cm^2). The method in brief:
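Helicoverpa zea (corn earworm) was tested in a 128-well diet tray. Each 3 mL well received one to five second instar larvae on diet treated with the test material in an acetone-water mixture, applied to eight wells and dried. Trays were sealed with clear self-adhesive covers, kept at 25° C., 14:10 light-dark for five to seven days, then percent mortality was averaged across eight wells.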

[3] abbreviates: percent mortality, second instar larvae, 50 μg/cm^2 on diet, five to seven days.
Setting [4] is: corrected % control (Abbott), 200 ppm foliar spray on cabbage, three days.
[5] abbreviates: percent mortality, second instar larvae, five to seven days.

Where two headings read alike, the source gives them in different places.

With `Cc1cccc(C)c1N/C(=N/C(=O)Nc1ccc(-c2ncn(-c3ccc(OC(F)(F)F)cc3)n2)cc1)SCOC(=O)C(C)C` [Molecule A4, (E)-(N′-(2,6-Dimethylphenyl)-N-(4-(1-(4-(trifluoromethyoxy)phenyl)-1H-1,2,4-triazol-3-yl)phenylcarbamoyl)carbamimidoylthio)methyl isobutyrate], in assay [1], the “Rating YFM” value is listed as “A (80-100)”. Also, the pest or weed control at 50 µg/cm2 in the assay with BAW (Spodoptera exigua) (setting [3]) and in the assay on CEW (Helicoverpa zea) (setting [3]) was 50 to 100% in each case. The pest or weed control at 200 ppm in assay [2] (setting [4]) lay in the range of 0 to 80%.
On to `COc1cc(C)c(N/C(=N/C(=O)Nc2ccc(-c3ncn(-c4ccc(OC(F)(F)F)cc4)n3)cc2)SCOC(=O)C(C)C)c(C)c1` [Molecule A7, (E)-(N′-(2,6-Dimethyl-4-methoxyphenyl)-N-(4-(1-(4-(trifluoromethyoxy)phenyl)-1H-1,2,4-triazol-3-yl)phenylcarbamoyl)carbamimidoylthio)methyl isobutyrate], for which the pest or weed control at 50 µg/cm2 in the assay with BAW (Spodoptera exigua) (setting [3]) and with CEW (Helicoverpa zea) (setting [3]) was 50 to 100% each time. Further, in assay [2] (setting [4]), the pest or weed control at 200 ppm was in the range of 0 to 80%.
As for `COc1cc(C)c(N/C(=N/C(=O)Nc2ccc(-c3ncn(-c4ccc(C(F)(F)F)cc4)n3)cc2)SCOC(=O)CNC(=O)OCc2ccccc2)c(C)c1` [Molecule A9, (E)-((N′-(4-Methoxy-2,6-dimethylphenyl)-N-((4-(1-(4-(trifluoromethyl)phenyl)-1H-1,2,4-triazol-3-yl)phenyl)carbamoyl)carbamimidoyl)thio)methyl 2-(((benzyloxy)carbonyl)amino)acetate], the pest or weed control at 50 µg/cm2 in the assay on BAW (Spodoptera exigua) and in the assay with CEW (Helicoverpa zea) was 50 to 100% in each case. Also, in assay [2] (foliar), the pest or weed control at 200 ppm lay within 0 to 80%.
With `Cc1cccc(C)c1N/C(S)=N/C(=O)Nc1ccc(-c2ncn(-c3ccc(OC(F)(F)F)cc3)n2)cc1` [Molecule A11], the pest or weed control at 50 µg/cm2 in the assay on BAW (Spodoptera exigua) (setting [3]) and with CEW (Helicoverpa zea) (setting [3]) was 50 to 100% throughout. Further, the pest or weed control at 200 ppm in assay [2] (setting [4]) was in the range of 0 to 80%.
Regarding `Cc1cccc(C)c1N1C(=O)CS/C1=N\C(=O)Nc1ccc(-c2ncn(-c3ccc(OC(F)(F)F)cc3)n2)cc1` [Molecule A14, (Z)-1-(3-(2,6-dimethylphenyl)-4-oxothiazolidin-2-ylidene)-3-(4-(1-(4-(trifluoromethoxy)phenyl)-1H-1,2,4-triazol-3-yl)phenyl)urea], the “Rating YFM” value in assay [1] is reported as “A (80-100)”. Moreover, the pest or weed control at 50 µg/cm2 with BAW (Spodoptera exigua) (setting [3]) and in the assay on CEW (Helicoverpa zea) (setting [3]) was 50 to 100% in each case. Besides, in assay [2] (setting [4]), the pest or weed control at 200 ppm lay in the range of 0 to 80%.
For `COc1ccc(N/C(O)=C/C(=O)Nc2ccc(-c3ncn(-c4ccc(OC(F)(F)F)cc4)n3)cc2)c(C)c1` [Molecule A33, (Z)-3-hydroxy-3-(4-methoxy-2-methylphenylamino)-N-(4-(1-(4-(trifluoromethoxy)phenyl)-1H-1,2,4-triazol-3-yl)phenyl)acrylamide], the pest or weed control at 50 µg/cm2 with BAW (Spodoptera exigua) (setting [3]) and in the assay on CEW (Helicoverpa zea) (setting [3]) was 50 to 100% each time. The pest or weed control at 200 ppm in assay [2] (setting [4]) was 0 to 80%.
Consider `COc1cc(C)c(N2C(=O)CS/C2=N\C(=O)Nc2ccc(-c3ncn(-c4ccc(OC(F)(F)F)cc4)n3)cc2)c(C)c1` [Molecule A44], for which, in assay [1], the “Rating YFM” value is given as “A (80-100)”. Moreover, the pest or weed control at 50 µg/cm2 with BAW (Spodoptera exigua) (setting [3]) and in the assay on CEW (Helicoverpa zea) (setting [3]) was 50 to 100% in each case. Moreover, in assay [2] (setting [4]), the pest or weed control at 200 ppm lay within 0 to 80%.
For the molecule `CCc1ccccc1N/C(S)=N/C(=O)Nc1ccc(-c2ncn(-c3ccc(OC(F)(F)F)cc3)n2)cc1` [Molecule A46], the “Rating YFM” value in assay [1] was “A (80-100)”. Moreover, the pest or weed control at 50 µg/cm2 in the assay on BAW (Spodoptera exigua) (setting [3]) and with CEW (Helicoverpa zea) (setting [3]) was 50 to 100% in each case. Besides, in assay [2] (setting [4]), the pest or weed control at 200 ppm was 0 to 80%.
As to `Cc1ccc(N2C(=O)CS/C2=N\C(=O)Nc2ccc(-c3ncn(-c4ccc(OC(F)(F)F)cc4)n3)cc2)c(Cl)c1` [Molecule A77], the “Rating YFM” value in assay [1] is “B (More than 0-Less than 80)”. The pest or weed control at 50 µg/cm2 in the assay with BAW (Spodoptera exigua) (setting [3]) fell in the range of 50 to 100%. Further, in the assay on CEW (Helicoverpa zea) (setting [5]), the pest or weed control at 0.5 µg/cm2 fell in the range of 50 to 100%.
For `Cc1ccccc1N/C(S)=N/C(=O)Nc1ccc(-c2ncn(-c3ccc(OC(F)(F)F)cc3)n2)cc1` [Molecule A80], the “Rating YFM” value in assay [1] is on record as “B (More than 0-Less than 80)”. In addition, the pest or weed control at 50 µg/cm2 in the assay with BAW (Spodoptera exigua) (setting [3]) and with CEW (Helicoverpa zea) (setting [3]) was 50 to 100% throughout.
As to `CC(C)c1cccc(Cl)c1N1C(=O)CS/C1=N\C(=O)Nc1ccc(-c2ncn(-c3ccc(OC(F)(F)F)cc3)n2)cc1` [Molecule A85], the “Rating YFM” value in assay [1] is “A (80-100)”. In the assay on BAW (Spodoptera exigua) (setting [3]), the pest or weed control at 50 µg/cm2 was 50 to 100%. In the assay with CEW (Helicoverpa zea) (setting [5]), the pest or weed control at 0.5 µg/cm2 lay in the range of 50 to 100%.
Regarding `COc1ccc(N2C(=O)CS/C2=N\C(=O)Nc2ccc(-c3ncn(-c4ccc(OC(F)(F)F)cc4)n3)cc2)c(C)c1` [Molecule A110], the “Rating YFM” value in assay [1] was “A (80-100)”. The pest or weed control at 50 µg/cm2 in the assay with BAW (Spodoptera exigua) (setting [3]) was 50 to 100%. Further, the pest or weed control at 0.5 µg/cm2 in the assay with CEW (Helicoverpa zea) (setting [5]) lay in the range of 50 to 100%.
For `Cc1cc(-c2ncn(-c3ccc(OC(F)(F)F)cc3)n2)ccc1NC(=O)/N=C(\S)Nc1ccccc1C(C)C` [Molecule A122, N-[[(2-isopropyllphenyl)amino]thioxomethyl]-N′-(2-methyl(4-(1-(4-(trifluoromethoxy)phenyl)-1H-1,2,4-triazol-3-yl)phenyl))urea], in assay [1], the “Rating YFM” value is given as “A (80-100)”. For the same molecule, the pest or weed control at 50 µg/cm2 with BAW (Spodoptera exigua) (setting [3]) lay in the range of 50 to 100%. Moreover, the pest or weed control at 0.5 µg/cm2 in the assay on CEW (Helicoverpa zea) (setting [5]) fell in the range of 50 to 100%.
Take `Cc1cc(-c2ncn(-c3ccc(OC(F)(F)F)cc3)n2)ccc1NC(=O)/N=C1\SCC(=O)N1c1ccccc1C(C)C` [Molecule A123, (Z)-1-(3-(2-isopropylphenyl)-4-oxothiazolidin-2-ylidene)-3-(2-methyl-4-(1-(4-(trifluoromethoxy)phenyl)-1H-1,2,4-triazol-3-yl)phenyl)urea]: in assay [1], the “Rating YFM” value is recorded as “A (80-100)”. In the assay with BAW (Spodoptera exigua) (setting [3]), the pest or weed control at 50 µg/cm2 was 50 to 100%. Also, the pest or weed control at 0.5 µg/cm2 with CEW (Helicoverpa zea) (setting [5]) was 50 to 100%.

Source of the values: patent US9440964B2, “Pesticidal compositions and processes related thereto” (Dow AgroSciences LLC, priority 2011, dated 2016).
